For one molecule, Ki results are on record in BindingDB's records for patent US11964990 (Abbvie, 2024).

The target in experiment [1] is Bcl-2-like protein 1 (Homo sapiens, UniProt Q07817). Description: Time Resolved-Fluorescence Resonance Energy Transfer (TR-FRET) Assay. How it is done:
(§1) [Bcl-2 protein or Bcl-xL protein], [Probe], [Antibody],Protein Probe nM nM Antibody nMGST- F-Bak 1 100 Tb-anti- 1Bcl- Acetyl-(SEQ GST 2 ID NO: 3)-NH2The samples were then mixed on a shaker for 1 minute and equilibrated for an additional 3 hours at room temperature. For each assay plate, a probe/antibody and protein/antibody/probe mixture were included as a negative and a positive control, respectively. Fluorescence was measured on the Envision (Perkin Elmer) using a 340/35 nm excitation filter and 520/525 (F-Bak) and 495/510 nm (Tb-labeled anti-GST antibody) emission filters. Inhibition constants (Ki) were determined using Wang's equation (Wang FEBS Lett. 1995, 360, 111-114). The TR-FRET assay can be performed in the presence of varying concentrations of human serum (HS) to determine apparent half maximal inhibitory concentration (IC50) after HS protein binding.
For orientation: Time-resolved FRET reads energy transfer from a long-lived donor to a nearby acceptor.

Experiment [2] addresses Apoptosis regulator Bcl-2 (Homo sapiens, UniProt P10415). Described as above. How it is done:
as §1

By Ki is commonly meant the dissociation constant of the complex between target and ligand, obtained from inhibition or displacement. A lower Ki goes with tighter binding.

Structures are written as SMILES.

Chain of Apoptosis regulator Bcl-2 (P10415 whole entry): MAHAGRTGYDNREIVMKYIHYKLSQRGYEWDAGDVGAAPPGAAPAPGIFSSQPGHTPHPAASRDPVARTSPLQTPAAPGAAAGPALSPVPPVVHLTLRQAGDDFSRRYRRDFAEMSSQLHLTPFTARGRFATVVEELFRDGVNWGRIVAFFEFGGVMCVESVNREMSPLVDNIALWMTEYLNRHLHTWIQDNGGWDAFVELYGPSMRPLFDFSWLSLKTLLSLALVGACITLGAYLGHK
Chain of Bcl-2-like protein 1 (Q07817 whole entry): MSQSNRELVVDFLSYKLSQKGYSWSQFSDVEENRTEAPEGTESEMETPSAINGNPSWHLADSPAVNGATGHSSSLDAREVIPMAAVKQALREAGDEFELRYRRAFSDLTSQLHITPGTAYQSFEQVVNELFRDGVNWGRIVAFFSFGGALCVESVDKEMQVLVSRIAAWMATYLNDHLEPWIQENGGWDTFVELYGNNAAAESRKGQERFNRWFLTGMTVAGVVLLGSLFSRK

Regarding `C[C@@H]1CC[C@H](CNc2ccc(S(=O)(=O)NC(=O)c3ccc(N4CCN5CC6=C(c7ccc(Cl)cc7)CC(C)(C)C[C@H]6OCCCOC[C@@H]5C4)cc3N3CCCOc4nc5[nH]ccc5cc43)cc2[N+](=O)[O-])OC1` [US11964990, Example 21], the inhibitory constant (Ki) in experiment [1] worked out at 58.9 nM; in experiment [2], 0.521 nM.
